Biological target: T1, luciferase (Photinus pyralis, UniProt P08659)
T1 construct: purchased Analytical Luminescent Laboratories (ALL), Sparks, Maryland #2005
Experiment: luminescence from the reaction between ATP and a luciferase/luciferin reactant system loaded on reagent discs
Format: biochemical
From the text: FIG. 11 is a plot of relative luminescent intensity for reactant mixtures prepared with (♦) and without (▪) trehalose in the reactant loading solution for use with the device of FIG. 1.
FIG. 12 is a plot of luminescent intensity as a function of the concentration of trehalose in the reactant solution for use with the device of FIG. 1.
As discussed above, the inherent chemical and mechanical stability of the polymeric material is ideally suited for use as a medium on which to load the chemiluminescent reagents for the practice of the present invention. A number of commercial enterprises market luciferin-luciferase reagent kits for use in chemiluminescent reaction assays. One that the inventors have found to be particularly well suited for the practice of the present invention is the “Firelight®” luciferin-luciferase reagent kit provided by Analytical Luminescent Laboratories (ALL) of Sparks, Maryland. […] This provides for a greater intensity of luminescence, and faster reaction kinetics.
In the preparation of the reagent discs 48, the reactant concentrate is loaded, preferably drop-wise, onto the Merocel® CF50, obtained in pre-sterilized sheets. The coated sheets are then dried at ambient temperatures under a vacuum, and the reagent discs are cut from the sheets in an appropriate size and shape. Alternatively, discs may be cut first and then loaded with appropriate reagent solution. When loaded in such fashion with the reagent mixture, reagent discs, approximately 6 mm in diameter and approximately 1.5 mm in height, carry approximately 0.5 mg of the dried reactant mixture.
It is recognized in the prior art that trehalose will stabilize delicate materials while they are freeze-dried. Freeze drying as a technique was devised as being the only way certain sensitive materials can be handled. Ordinary drying at ambient or elevated temperature and at atmospheric or reduced pressure causes irreversible degradation of very many such substances, so much so that it has been accepted that sensitive proteins must not be dried at ambient temperature. […]

T1 sequence (P08659 whole entry): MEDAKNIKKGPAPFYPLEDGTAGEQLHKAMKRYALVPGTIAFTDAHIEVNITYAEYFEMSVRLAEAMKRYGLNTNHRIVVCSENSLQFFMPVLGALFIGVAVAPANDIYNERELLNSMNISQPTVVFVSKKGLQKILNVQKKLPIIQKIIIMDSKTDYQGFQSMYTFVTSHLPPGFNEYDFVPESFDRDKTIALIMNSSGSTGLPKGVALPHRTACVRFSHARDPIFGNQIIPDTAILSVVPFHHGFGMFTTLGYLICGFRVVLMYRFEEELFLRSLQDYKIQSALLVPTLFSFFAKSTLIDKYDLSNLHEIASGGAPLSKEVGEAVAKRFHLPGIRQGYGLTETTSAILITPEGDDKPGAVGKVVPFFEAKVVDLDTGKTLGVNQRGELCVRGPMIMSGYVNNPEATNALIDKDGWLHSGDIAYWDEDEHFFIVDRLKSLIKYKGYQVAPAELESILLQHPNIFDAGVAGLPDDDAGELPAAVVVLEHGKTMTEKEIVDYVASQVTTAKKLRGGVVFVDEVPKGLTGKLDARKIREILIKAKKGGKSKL

## OC[C@H]1O[C@H](O[C@H]2O[C@H](CO)[C@@H](O)[C@H](O)[C@H]2O)[C@H](O)[C@@H](O)[C@@H]1O [trehalose, a-D-glucopyranosyl-a-D-glucopyranoside]
6 mm×1.5 mm reagent disc, total loading approximately 4 mg including trehalose, FIG. 12
  observed luminescent intensities versus the same loading of reagents without the trehalose: more than twice
Reactant mixtures prepared with and without trehalose in the loading solution, FIG. 11
  stabilization effect on the chemiluminescent reactant mixture: measurable stabilization effect
Trehalose added to the loading solution at levels approaching its saturation solubility
  biochemical activity of the luciferase component of the reagent mixture: up to a doubling, or more
